Assay results as given in patent US12686846B2, “Plant sweet and yeast MSF transporter capable of transporting different sugars simultaneously” (THE BOARD OF TRUSTEES OF THE UNIVERSITY OF ILLINOIS, priority 2020, dated 2026).
Entries after “also recorded” stand apart in the source; their conditions may differ.

Experiments:
Format in all cases: cell-based
[1] = target: T1, Saccharomyces cerevisiae ScGal2 (Gal2) transporter, SEQ ID NO:32 (Saccharomyces cerevisiae, UniProt P13181); assay: Inhibition of xylose uptake by glucose, SR8D8 expressing ScGal2; conditions: in words
T1 construct: expressed in transfected cells; host or cells: S. cerevisiae SR8D8 (SR8 with HXT1-7 and GAL2 deleted), plasmid p42K-GPD1p-CYC1t
T1 sequence (P13181 1-574): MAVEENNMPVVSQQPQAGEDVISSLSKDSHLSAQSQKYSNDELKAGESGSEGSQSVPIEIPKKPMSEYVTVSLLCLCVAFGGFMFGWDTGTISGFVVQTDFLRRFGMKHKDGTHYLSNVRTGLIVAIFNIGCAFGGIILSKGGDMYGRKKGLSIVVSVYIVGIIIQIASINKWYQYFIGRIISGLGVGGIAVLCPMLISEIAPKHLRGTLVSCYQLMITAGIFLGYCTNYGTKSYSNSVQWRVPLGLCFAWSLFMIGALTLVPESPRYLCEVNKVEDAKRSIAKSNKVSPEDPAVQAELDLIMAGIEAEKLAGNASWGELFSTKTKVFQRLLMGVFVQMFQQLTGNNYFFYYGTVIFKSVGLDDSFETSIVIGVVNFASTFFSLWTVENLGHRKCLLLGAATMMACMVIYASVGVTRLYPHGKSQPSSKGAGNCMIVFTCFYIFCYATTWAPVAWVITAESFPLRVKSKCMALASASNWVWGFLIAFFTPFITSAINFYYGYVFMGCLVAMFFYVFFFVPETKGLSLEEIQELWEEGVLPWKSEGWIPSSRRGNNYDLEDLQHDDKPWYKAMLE
Experimental: (§1) Symbols: glucose (square), xylose (triangle up), DCW (circle), ethanol (triangle down), glycerol (diamond). […] Global curve fitting for Michaelis-Menten kinetics with competitive inhibition was applied to data of three independent measurements at each concentration.
(§2) SR8D8 containing the respective plasmid was grown on selective YPE medium to an OD600 of 1-1.5, harvested by centrifugation, and washed twice in ice-cold uptake buffer (100 mM potassium phosphate, pH 6.5). C14 labeled sugar uptake assay was done according to Boles and Oreb. Radioactivity was analyzed in a Beckman-Coulter LS6500 multi-purpose liquid scintillation counter (Beckman-Coulter, CA, USA).
(§3) Sugar solutions contained 0.135-0.608 μCi of D-[U-^14C]-glucose (290-300 mCi/mmol) or D-[1-^14C]-xylose (55 mCi/mmol) (PerkinElmer, MA, USA). Calculation of Km (Michaelis constant), Vmax (maximal initial uptake velocity), and K (inhibitor constant for competitive inhibition) was done by nonlinear regression analysis and global curve fitting in Prism 7 (GraphPad Software) with values of three independent measurements.

[2] = target: T2, Arabidopsis thaliana AtSWEET7 transporter, wild type (Table 2: SEQ ID NO: 3; FIG. 12: SEQ ID NO:2) (Arabidopsis thaliana, UniProt Q8LBF7); assay: C14 labeled sugar uptake assay (zero-trans influx), SR8D8 expressing AtSWEET7; conditions: initial glucose uptake (5 s), 30° C., pH 6.5; cell wet weight; ± SEM
T2 construct: expressed in transfected cells; host or cells: S. cerevisiae SR8D8 (SR8 with HXT1-7 and GAL2 deleted), plasmid p42K-GPD1p-CYC1t
T2 sequence (Q8LBF7 1-258): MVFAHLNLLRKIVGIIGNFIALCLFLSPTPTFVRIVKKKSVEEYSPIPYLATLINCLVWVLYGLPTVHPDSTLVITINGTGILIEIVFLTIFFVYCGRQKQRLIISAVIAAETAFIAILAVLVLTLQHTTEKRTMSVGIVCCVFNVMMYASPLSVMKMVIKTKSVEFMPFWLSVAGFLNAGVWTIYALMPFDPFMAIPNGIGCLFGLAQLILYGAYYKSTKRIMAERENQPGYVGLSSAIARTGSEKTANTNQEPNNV
Experimental: FIG. 7A illustrates sugar uptake kinetics by SR8D8. FIG. 7B illustrates sugar uptake kinetics by SR8D8 expressing AtSWEET1. FIG. 7C illustrates sugar uptake kinetics by SR8D8 expressing ScGal2. FIG. 7D illustrates sugar uptake kinetics by SR8D8 expressing AtSWEET7. FIG. 7E illustrates sugar uptake kinetics by SR8D8 expressing LST1_205437. Initial xylose uptake (20 s) was measured at 30° C. over a concentration range of 1 to 500 mM xylose. FIG. 7F illustrates sugar uptake kinetics by SR8D8. FIG. 7G illustrates sugar uptake kinetics by SR8D8 expressing AtSWEET1. FIG. 7H illustrates sugar uptake kinetics by SR8D8 expressing ScGal2. FIG. 7I illustrates sugar uptake kinetics by SR8D8 expressing AtSWEET7. FIG. 7J illustrates sugar uptake kinetics by SR8D8 expressing LST1_205437. Initial glucose uptake (5 s) was measured at 30° C. over a concentration range of 0.2 to 100 mM glucose. […]
A xylose fermenting S. cerevisiae yeast (SR8) with HXT1-7Δ, GAL2Δ deletions was used for transporter screening and characterization (SR8D8). […] Biomass was calculated from the OD600 measured using a Biomate 5 UV-visible spectrophotometer (Fisher, NY, USA). All growth rates were measured using a Bioscreen C plate reader system (Growth Curves USA, Piscataway, NJ, USA). […]
Uptake was measured at sugar concentrations 0.2, 1, 5, 25, and 100 mM for glucose and 1, 5, 25, 66, 100, 200, and 500 mM for xylose. […]

[3] = target: T2, Arabidopsis thaliana AtSWEET7 transporter, wild type (Table 2: SEQ ID NO: 3; FIG. 12: SEQ ID NO:2); assay: Inhibition of xylose uptake by glucose, SR8D8 expressing AtSWEET7; conditions: 25 mM and 100 mM glucose; in words
Experimental: as §1, §2, §3

For OC[C@H]1OC(O)[C@H](O)[C@@H](O)[C@@H]1O (stereo partly shown) [Glucose], which “inhibition of xylose transport by glucose” value (“inhibition” below) ([1]; 25 mM glucose) is on record?
Its value is “complete xylose inhibition”.

What about the “inhibition” value ([1]; 25 mM or 100 mM glucose) of the same compound?
The value was “completely inhibited”.

And the “Vmax (glucose)” value [2]?
Its value is 110.3 ± 7.2 nmol/min/mg.

What about the “inhibition” value [3] of the same compound?
The value was “no inhibition of xylose transport by glucose; also recorded: do not have any xylose transport inhibition”.
